In patent US11806342B2, “Diiodohydroxyquinoline for the treatment of clostridium difficile infection” (Purdue Research Foundation, priority 2019, dated 2023):
Values after ≈ are worked out from the molar mass of the structure shown.

Columns and labels:
Format in all cases: cell-based, Clostridium difficile
[1] = test system: C. difficile ATCC BAA-1870; test: Toxin A and B production inhibition, ELISA; settings: 8 hours
Experimental: (§1) To investigate DIHQs toxin production inhibitory activity, toxin A and toxin B levels were measured as described previously. […] An aliquot from each tube was diluted and plated on BHIS agar plates and incubated anaerobically at 37° C. for 24 hours to detect the bacterial count. The total concentration of C. difficile toxin A and B was measured in the supernatant of each tube using enzyme linked immunosorbent assay (ELISA) kit (tgc BIOMICS, Dunwoody, GA) following the manufacturer's instructions. The (OD450-OD620) values, corresponding to the toxin concentration, were measured for DIHQ and control drugs.

C. difficile NR-49277 = test: Toxin A and B production inhibition, ELISA; settings: 8 hours
Experimental: as §1

C. difficile ATCC 43255 [2] = test: Toxin A and B production inhibition, ELISA; settings: 8 hours
Experimental: as §1

C. difficile P20 = test: MIC and MBC, broth microdilution; settings: Clostridioides difficile, C. difficile P20
Experimental: (§2) Antibacterial activity of Diiodohydroxyquinoline against a wide panel of Clostridium difficile strains. […] MIC50 and MIC90 are the minimum concentration of each agent that inhibited growth of 50% and 90% of the tested isolates, respectively. The minimum bactericidal concentration (MBC) of these drugs was tested by plating 5 μL from wells with no growth onto BHIS agar plates. The MBC was categorized as the lowest concentration that reduced bacterial growth by 99.9% MIC50 and MIC90 are the minimum concentration of each agent that inhibited the growth of 50% and 90% of the tested isolates, respectively. The minimum bactericidal concentration (MBC) of these drugs was tested by plating 5 μL from wells with no growth onto BHIS agar plates. The MBC was categorized as the lowest concentration that reduced bacterial growth by 99.9% [29-31].

C. difficile I10 = test: MIC and MBC, broth microdilution; settings: Clostridioides difficile, C. difficile I10
Experimental: as §2

C. difficile P30 = test: MIC and MBC, broth microdilution; settings: Clostridioides difficile, C. difficile P30
Experimental: as §2

C. difficile P6 = test: MIC and MBC, broth microdilution; settings: Clostridioides difficile, C. difficile P6
Experimental: as §2

C. difficile P3 = test: MIC and MBC, broth microdilution; settings: Clostridioides difficile, C. difficile P3
Experimental: as §2

C. difficile NR-49285 = test: MIC and MBC, broth microdilution; settings: Clostridioides difficile, NR49285, C. difficile NR-49285
Experimental: as §2

C. difficile P5 = test: MIC and MBC, broth microdilution; settings: Clostridioides difficile, C. difficile P5
Experimental: as §2

C. difficile P15 = test: MIC and MBC, broth microdilution; settings: Clostridioides difficile, C. difficile P15
Experimental: as §2

C. difficile I11 = test: MIC and MBC, broth microdilution; settings: Clostridioides difficile, C. difficile I11
Experimental: as §2

C. difficile I9 = test: MIC and MBC, broth microdilution; settings: Clostridioides difficile, C. difficile I9
Experimental: as §2

C. difficile HM-745 = test: MIC and MBC, broth microdilution; settings: Clostridioides difficile, HM745, C. difficile HM-745
Experimental: as §2

C. difficile P19 = test: MIC and MBC, broth microdilution; settings: Clostridioides difficile, C. difficile P19
Experimental: as §2

C. difficile NR-49288 = test: MIC and MBC, broth microdilution; settings: Clostridioides difficile, NR49288, C. difficile NR-49288
Experimental: as §2

C. difficile I6 = test: MIC and MBC, broth microdilution; settings: Clostridioides difficile, C. difficile I6
Experimental: as §2

C. difficile I13 = test: MIC and MBC, broth microdilution; settings: Clostridioides difficile, C. difficile I13
Experimental: as §2

C. difficile ATCC 43255 [3] = test: MIC and MBC, broth microdilution; settings: Clostridioides difficile, ATCC43255, C. difficile ATCC 43255
Experimental: as §2

C. difficile ATCC 1801 = test: MIC and MBC, broth microdilution; settings: Clostridioides difficile, ATCC1801, C. difficile ATCC 1801
Experimental: as §2

C. difficile NR-49278 = test: MIC and MBC, broth microdilution; settings: Clostridioides difficile, NR49278, C. difficile NR-49278
Experimental: as §2

Question: With `CCc1c(Cl)c(O)c(Cl)c(O)c1C(=O)O[C@H]1[C@H](O)[C@H](OC)[C@H](OC/C2=C\C=C\C[C@H](O)/C(C)=C/[C@H](CC)[C@@H](O[C@@H]3OC(C)(C)[C@@H](OC(=O)C(C)C)[C@H](O)[C@@H]3O)/C(C)=C/C(C)=C/C[C@@H]([C@@H](C)O)OC2=O)O[C@@H]1C` [Fidaxomicin, fidaxomicin] as the compound, how does the “inhibition of total toxin production” value ([1]; C. difficile ATCC BAA-1870, ¼×MIC) read?
Answer: The value was 31.9%.

Question: And the “inhibition of total toxin production” value ([1]; C. difficile ATCC BAA-1870, ½×MIC)?
Answer: Its value is 46.2%.

Question: What about the “inhibition of total toxin production” value (C. difficile NR-49277; C. difficile NR-49277, ¼×MIC) of the same compound?
Answer: Its value is 58.8%.

Question: And the “inhibition of total toxin production” value (C. difficile NR-49277; C. difficile NR-49277, ½×MIC)?
Answer: The value was 67.4%.

Question: What about the “inhibition of total toxin production” value (C. difficile ATCC 43255 [2]; C. difficile ATCC 43255, ¼×MIC) of the same compound?
Answer: The value was 14.3%.

Question: What about the “inhibition of total toxin production” value (C. difficile ATCC 43255 [2]; C. difficile ATCC 43255, ½×MIC) of the same compound?
Answer: Its value is 37%.

Question: What about the MBC (C. difficile P20; read-out: MBC) of the same compound?
Answer: Its MBC is 0.015 µg/mL (≈ 0.0142 µM).

Question: And the MIC (C. difficile P20; read-out: MIC)?
Answer: The MIC was 0.015 µg/mL (≈ 0.0142 µM).

Question: What about the MBC (C. difficile I10; read-out: MBC) of the same compound?
Answer: Its MBC is 0.03 µg/mL (≈ 0.0284 µM).

Question: What about the MIC (C. difficile I10; read-out: MIC) of the same compound?
Answer: The MIC was 0.015 µg/mL (≈ 0.0142 µM).

Question: And the MBC (C. difficile P30; read-out: MBC)?
Answer: Its MBC is 0.007 µg/mL (≈ 0.00662 µM).

Question: And the MIC (C. difficile P30; read-out: MIC)?
Answer: The MIC was 0.007 µg/mL (≈ 0.00662 µM).

Question: And the MBC (C. difficile P6; read-out: MBC)?
Answer: The MBC was 0.003 µg/mL (≈ 0.00284 µM).

Question: And the MIC (C. difficile P6; read-out: MIC)?
Answer: Its MIC is 0.003 µg/mL (≈ 0.00284 µM).

Question: And the MBC (C. difficile P3; read-out: MBC)?
Answer: The MBC was 0.03 µg/mL (≈ 0.0284 µM).

Question: What about the MIC (C. difficile P3; read-out: MIC) of the same compound?
Answer: Its MIC is 0.015 µg/mL (≈ 0.0142 µM).

Question: What about the MBC (C. difficile NR-49285; read-out: MBC) of the same compound?
Answer: Its MBC is 0.03 µg/mL (≈ 0.0284 µM).

Question: What about the MIC (C. difficile NR-49285; read-out: MIC) of the same compound?
Answer: Its MIC is 0.015 µg/mL (≈ 0.0142 µM).

Question: And the MBC (C. difficile P5; read-out: MBC)?
Answer: The MBC was 0.03 µg/mL (≈ 0.0284 µM).

Question: And the MIC (C. difficile P5; read-out: MIC)?
Answer: Its MIC is 0.03 µg/mL (≈ 0.0284 µM).

Question: And the MBC (C. difficile P15; read-out: MBC)?
Answer: The MBC was 0.06 µg/mL (≈ 0.0567 µM).

Question: What about the MIC (C. difficile P15; read-out: MIC) of the same compound?
Answer: Its MIC is 0.06 µg/mL (≈ 0.0567 µM).

Question: And the MBC (C. difficile I11; read-out: MBC)?
Answer: The MBC was 0.015 µg/mL (≈ 0.0142 µM).

Question: And the MIC (C. difficile I11; read-out: MIC)?
Answer: The MIC was 0.015 µg/mL (≈ 0.0142 µM).

Question: And the MBC (C. difficile I9; read-out: MBC)?
Answer: Its MBC is 0.03 µg/mL (≈ 0.0284 µM).

Question: What about the MIC (C. difficile I9; read-out: MIC) of the same compound?
Answer: Its MIC is 0.03 µg/mL (≈ 0.0284 µM).

Question: And the MBC (C. difficile HM-745; read-out: MBC)?
Answer: Its MBC is 0.125 µg/mL (≈ 0.118 µM).

Question: And the MIC (C. difficile HM-745; read-out: MIC)?
Answer: Its MIC is 0.06 µg/mL (≈ 0.0567 µM).

Question: And the MBC (C. difficile P19; read-out: MBC)?
Answer: The MBC was 0.06 µg/mL (≈ 0.0567 µM).

Question: And the MIC (C. difficile P19; read-out: MIC)?
Answer: The MIC was 0.03 µg/mL (≈ 0.0284 µM).

Question: What about the MBC (C. difficile NR-49288; read-out: MBC) of the same compound?
Answer: The MBC was 0.015 µg/mL (≈ 0.0142 µM).

Question: What about the MIC (C. difficile NR-49288; read-out: MIC) of the same compound?
Answer: Its MIC is 0.007 µg/mL (≈ 0.00662 µM).

Question: What about the MBC (C. difficile I6; read-out: MBC) of the same compound?
Answer: Its MBC is 0.06 µg/mL (≈ 0.0567 µM).

Question: What about the MIC (C. difficile I6; read-out: MIC) of the same compound?
Answer: Its MIC is 0.06 µg/mL (≈ 0.0567 µM).

Question: And the MBC (C. difficile I13; read-out: MBC)?
Answer: The MBC was 0.03 µg/mL (≈ 0.0284 µM).

Question: And the MIC (C. difficile I13; read-out: MIC)?
Answer: Its MIC is 0.03 µg/mL (≈ 0.0284 µM).

Question: What about the MBC (C. difficile ATCC 43255 [3]; read-out: MBC) of the same compound?
Answer: The MBC was 0.015 µg/mL (≈ 0.0142 µM).

Question: And the MIC (C. difficile ATCC 43255 [3]; read-out: MIC)?
Answer: The MIC was 0.015 µg/mL (≈ 0.0142 µM).

Question: And the MBC (C. difficile ATCC 1801; read-out: MBC)?
Answer: The MBC was 0.125 µg/mL (≈ 0.118 µM).

Question: And the MIC (C. difficile ATCC 1801; read-out: MIC)?
Answer: The MIC was 0.06 µg/mL (≈ 0.0567 µM).

Question: And the MBC (C. difficile NR-49278; read-out: MBC)?
Answer: The MBC was 0.015 µg/mL (≈ 0.0142 µM).

Question: What about the MIC (C. difficile NR-49278; read-out: MIC) of the same compound?
Answer: The MIC was 0.007 µg/mL (≈ 0.00662 µM).
